Source: a melting point compilation (Tetko et al.; mined from patent text by program, amines drawn as free bases though some values may be those of a salt)

Row | Structure (SMILES) | melting point
1 | CCN(C(C)C)C(C)CC1=C(c2ccc(OC)cc2)CCCNC1=O (stereo unspecified) | 64 to 66 °C
2 | O=C(C[C@H]1CCCO1)N[C@H]1CC[C@H](CCN2CCC(c3cccc4c3CCO4)CC2)CC1 | 192 °C
3 | Cn1nc(-c2c(Cl)cccc2Cl)nc1-c1sc(Cl)c(Cl)c1Cl | 146 to 147 °C
4 | N#Cc1ccc2cc(O)ccc2c1 | 160 to 164 °C
5 | O=C(NC(CO)(CO)CO)c1cc2ccnc(Cl)c2[nH]1 | 218 to 220 °C
6 | Oc1ccc2cc(Br)ccc2c1Cl | 100 to 101 °C
7 | Cn1ccnc1Sc1ccc2[nH]nc(N)c2c1 | 174 °C
8 | CC(=O)NC(=O)c1cc([N+](=O)[O-])cnc1C(Br)Br | 168 °C
9 | Nc1cc2c(cc1[N+](=O)[O-])[nH]c(=O)c(=O)n2C1CCCCC1 | > 260 °C
10 | COC(=O)CCn1c(=O)n(CCN2CCN(c3cccc(OC)c3)CC2)c(=O)c2cscc21 | 136 to 137 °C
11 | COc1ccc(Cl)cc1Cn1nc(-c2ccc(C(F)(F)F)cc2)oc1=O | 144 to 145 °C
12 | Cc1ncc([N+](=O)[O-])cc1C(=O)NCCO | 144 to 145 °C
13 | COc1ccc(-c2cn([C@H]3CN4CCC3CC4)nn2)cc1 | 122 °C
14 | O=C(C(=O)c1cccc(F)c1)c1cccc(F)c1 | 104 to 105 °C
15 | CCN(c1ccc(N2CCN(c3ccc(OC)cc3)CC2)cc1)c1nc(-c2ccccc2)cs1 | 224 °C
16 | CN1CC2C3C=CC(C3)C2(c2cccc(O)c2)C1 (stereo unspecified) | 129 to 136 °C
17 | CN(c1cccc(-c2ccnc3c(C(=O)c4cccs4)cnn23)c1)S(C)(=O)=O | 169 to 170 °C
18 | CC1(C)Cc2c(ccc3c2C(c2cccc(-c4ccc(NC(=O)OCc5ccccc5)cc4)c2)=NCC3(C)C)O1 | 126 to 129 °C
19 | CCCCc1nn(-c2cc(N)ccc2C(F)(F)F)c(=O)n1Cc1ccc(-c2ccccc2S(=O)(=O)NC(=O)OC(C)(C)C)cc1 | 154 to 156 °C
20 | CC(C)(C)NC(=O)[C@@H]1CN(C(=O)OC(C)(C)C)CCN1C(=O)OCc1ccccc1 | 134 to 135 °C
21 | O=C(CC(=O)C(F)(F)F)Nc1cc(-c2ccsc2)n[nH]1 | 251 to 253 °C
22 | O=C(NC(=O)c1c(Cl)cccc1Cl)Nc1ccc(F)c(C(F)(F)F)c1Cl | 227 to 230 °C
23 | CC(C)(C)OC1OC(=O)CC(C)(C)C1OS(C)(=O)=O (stereo unspecified) | 64 °C
24 | COC1=C(OC)C(=O)C(c2cc(C(C)(C)C)c(O)c(C(C)(C)C)c2)=C(C)C1=O | 147 to 148 °C
25 | CCNC(=O)CN(C)C(=O)[C@H](C)NC(=O)CC | 149 to 151 °C
26 | c1ccc(-n2c(-c3ccc(-c4ccc(-c5nc6c7ccccc7c7ccccc7c6n5-c5ccccc5)cc4)cc3)nc3c4ccccc4c4ccccc4c32)cc1 | 402 °C

Row | Structure (SMILES) | melting point
27 | CC(C)(C)c1cc(OCC(=O)NN)cc(C(C)(C)C)c1O | 141 to 142 °C
28 | COc1ccc(CC(=O)Cc2ccc(OC)cc2)cc1 | 75 to 76 °C
29 | CN(C)C(=O)CC1(C)OCCC2=C1c1ccccc1C2 (stereo unspecified) | 112 to 114 °C
30 | Nc1ccc(CCC(=O)Nc2ccc(C(=O)c3ccccc3)cc2)cc1N | 156 to 157 °C
31 | O=c1ccc(C(c2ccc(Cl)cc2)c2ccc(Cl)cc2)c[nH]1 | 211 to 215 °C
32 | CC1=Nc2c3ccccc3nc(=O)n2C1C (stereo unspecified) | 234 to 237 °C
33 | CO[C@]1(c2csc(Sc3ccc4c(c3)CC/C4=N\O)c2)CCO[C@@H]1C (racemic) | 140 to 142 °C
34 | CC(C)(C)NCCCOc1ccccc1C(=O)c1cccc2[nH]ccc12 | 130 °C
35 | CCCCCCCCCCc1cc(C=O)on1 | 46 to 48 °C
36 | COc1ccc(CSC2CC(=O)N2CC(=O)NCCCCCCc2ccc(F)cc2)cc1 (stereo unspecified) | 53 to 55 °C
37 | COP(C)(=O)C1CC(c2ccccc2)=NO1 (stereo unspecified) | 72 to 74 °C
38 | O=C(Nc1nccs1)c1cn(CC2CC2)c2cc(Cl)ccc12 | 185 to 187 °C
39 | Nc1ccc(SCC2CC2)cc1[N+](=O)[O-] | 45 to 47 °C
40 | CCC(NC(=O)C(F)F)c1ccc(Cl)c2nc3n(c12)CCCN3c1c(Cl)cc(Cl)cc1Cl (stereo unspecified) | 211 to 213 °C
41 | O=C1OC(c2ccc(Cl)c(S(=O)(=O)Cl)c2)c2ccccc21 (stereo unspecified) | 158 to 159 °C
42 | NC(=O)N(O)CC1CCC1 | 112 to 113 °C
43 | O=C(O)Cn1c(=S)c2ccccc2n(Cc2ccc(Cl)cc2Cl)c1=O | 220 to 221 °C
44 | CCOc1nc(N)c2ncn(C3CCCCC3)c2n1 | 134 to 136 °C
45 | O=C(CCN1CCC(C(O)(c2ccc(F)cc2)c2ccc(F)cc2)CC1)Nc1ccccc1 | 190 to 192 °C
46 | COc1cc(OC)c(C23CC4CC(CC(C4)C2)C3)cc1C(=O)O | 213 to 214 °C
47 | O=C(Nc1cccc(-c2ccnc3c(C(=O)c4cccs4)cnn23)c1)c1cnccn1 | 222 to 224 °C
48 | Cc1cccc(C(=O)Nc2ccc3c(c2)CC(N(C)Cc2ccccn2)C3)c1-c1ccc(C(F)(F)F)cc1 (stereo unspecified) | 105 to 115 °C
49 | Cc1[nH]c(=O)n(-c2cc(C(=O)OC(C)C)c(Cl)cc2F)c(=O)c1[N+](=O)[O-] | 202 to 205 °C
50 | CCC(=O)OCC(CCn1cnc2cnc(N)nc21)COC(=O)CC | 77.5 to 79 °C
51 | CCOC(=O)c1c(C(F)(F)F)oc(C(F)(F)F)c(C(=O)OCC)c1=O | 90 to 91 °C
52 | CC(c1oc2ccccc2c(=O)c1-c1cccc(F)c1)n1nc(-c2csc(CO)c2)c2c(N)ncnc21 (stereo unspecified) | 154 to 156 °C

Row | Structure (SMILES) | melting point
53 | NC(=O)c1cc(Cl)c(NC(=O)CCl)c(Cl)c1 | 260 °C
54 | CCN(CC)CC1CCN(c2c(F)cc3c(=O)c(C(=O)O)cn(CC)c3c2F)C1 (stereo unspecified) | 210 to 211 °C
55 | Cc1ccc(S(=O)(=O)OCC2Cc3cccc(-c4ccc(F)c(Cl)c4)c3O2)cc1 (stereo unspecified) | 104 to 108 °C
56 | C=CCC(C#N)(c1ccc(F)cc1)c1ccccc1F (stereo unspecified) | 215 to 219 °C
57 | Cc1nc2ccc(Cl)cc2s1 | 85 to 86 °C
58 | O=C(/C=C/[C@@H]1[C@H]2CC(=O)O[C@H]2C[C@H]1OC(=O)c1ccccc1)CCc1ccccc1 | 119 to 120 °C
59 | O=S1(=O)CCC=C(O)c2cc(Cl)ccc21 | 166 to 168 °C
60 | N#CCCN(N)c1nc2ccccc2o1 | 169 to 170 °C
61 | [N-]=[N+]=NCn1cc(Cl)c(-c2cc(Cl)cc(Cl)c2)n1 | 74 °C
62 | CCCCCCCCOc1ccc(C2CN=C(c3c(F)cccc3Cl)S2)cc1 (stereo unspecified) | 41 to 41.5 °C
63 | CCOC(=O)C(=O)NS(=O)(=O)Cc1nc(-c2ccc(Cl)c(Cl)c2)cs1 | 180 to 182 °C
64 | Nc1nc(N)c(-c2ccc(Cl)cc2Cl)c(COCc2ccccc2)n1 | 171 to 172 °C
65 | O=C(CCC(=O)N1CCC(c2ccc(Cl)cc2)CC1)c1ccc2c(c1)CCN(Cc1ccccc1)CC2 | 133 to 134 °C
66 | CCCCc1nc(-c2nc(C)nc(C)n2)ccc1C | 73.5 °C
67 | CCOC(=O)COc1ccccc1C(=O)Nc1ccccc1Sc1ccc(-c2nnn[nH]2)cc1 | 155 to 157 °C
68 | COC(=O)c1ccc(C=NNc2cc(C(C)(C)C)cc(C(C)(C)C)c2)cc1 | 215 to 220 °C
69 | CCOC(=O)C1=C(C)N(C(C)=O)C(c2csc(C)n2)=NC1c1ccccc1 (stereo unspecified) | 140 to 142 °C
70 | CNC(=O)Nc1cc(C#N)ccn1 | 203 to 204 °C
71 | Cc1cccc2c1NC(=O)CC2(C)C | 120 °C
72 | Cc1nc(N)nc(N)c1C#CC(C)(C)c1ccc(C(F)(F)F)cc1 | 153 to 157 °C
73 | CC(=O)N1CCC(OC(CO)c2ccccc2)CC1 (stereo unspecified) | 92 to 94 °C
74 | COc1cc(Cn2c(-c3ccc(OCc4ccccc4)cc3)c(C)c3cc(OCc4ccccc4)ccc32)ccc1OCCBr | 150 to 152 °C
75 | O=C1OCCC12Sc1ccc(S(=O)(=O)N3CCCCC3)cc1C2=O (stereo unspecified) | 159 to 161 °C
76 | Nc1n[nH]c2cccc(I)c12 | 153 °C
77 | Cc1ccc(-c2nc(Cc3cc4cc(C=O)ccc4o3)c(C)o2)cc1 | 126 to 130 °C
78 | O=C(/C=C/c1cccc(S(=O)(=O)N2CCN(c3cccc(C(F)(F)F)c3)CC2)c1)NO | 173 °C

Row | Structure (SMILES) | melting point
79 | CCCc1nc2c(N)nc3ccccc3c2n1CC(N)=O | > 300 °C
80 | CCCC(CCC)c1nc(-c2ccncc2)c(-c2ccc(Cl)cc2)n1CC | 152 to 155 °C
81 | CNc1c([N+](=O)[O-])ccc(Cl)c1Cl | 82 °C
82 | CCOc1ccc(NC(=O)NCCc2ccccn2)cc1 | 163 to 164 °C
83 | CCN1C(=O)CCCc2c(OC)ccc(Nc3ncc(Cl)c(Nc4ccc(N5CCOCC5)cc4OC)n3)c21 | 218 to 220 °C
84 | CCSCc1cc(O)nc(N(C)C)n1 | 119 to 121 °C
85 | CCCn1nc2c(N)nc3ccccc3c2c1CCCCS(N)(=O)=O | 211 to 213 °C
86 | CN(C)CCCn1c(-c2ccccc2)cc2c1CCS(=O)(=O)C2 | 123 to 125 °C
87 | CCCCCCCCOc1ccc(C(N)=O)c(O)c1 | 123 to 124 °C
88 | COC(=O)C1=Cc2cc(-c3ccc(N4CCOCC4)cc3)ccc2S(=O)(=O)CC1 | 215 to 217 °C
89 | CCOc1nn(-c2ccc(C(F)(F)F)cn2)cc1CCCOc1ccc(CCC(=O)O)cc1O | 124 to 125 °C
90 | Cc1cc(C)cc(-c2cc3cnc(N)nc3nc2N)c1 | 298 to 302 °C
91 | COc1ccccc1NS(=O)(=O)c1ccc(COC2CCCCO2)cc1 (stereo unspecified) | 67 to 70 °C
92 | CCOc1ccc(-c2ccc3c(c2)C=C(C(=O)Nc2ccc(CCl)cc2)CCO3)cc1 | 187 to 189 °C
93 | CC(C)(OCc1cc2nc(Cl)ccc2n1S(=O)(=O)c1cccc2ccccc12)C(=O)O | 209 °C
94 | Brc1cnc(-c2ccc(OCc3ccccc3)cc2)nc1 | 153 to 155 °C
95 | CCNCC1CN(c2c(F)cc3c(=O)c(C(=O)O)cn(-c4ccc(F)cc4F)c3c2F)CCO1 (stereo unspecified) | 226 to 229 °C
96 | COc1ccc(C(=O)Nc2c(Cl)cncc2Cl)cc1OC1COCC1OCSC (stereo unspecified) | 195 to 198 °C
97 | CC(C)C(NC(=O)c1ccccc1)C(O)C(F)(F)F (stereo unspecified) | 150 °C
98 | Oc1cccc2ccc(N3CCN(c4nc5ccc(C(F)(F)F)cc5[nH]4)CC3)nc12 | 191 to 193 °C
99 | CC(C(=O)NCC1CCC1)(c1ccccc1)c1ccccc1 | 79 °C
100 | Nc1cc(C(=O)c2cc3ccccc3o2)ccc1Cl | 137 °C
101 | CNC(=C[N+](=O)[O-])NCCOc1cccc(CN(C)C)c1 | 130 to 131 °C
